Data published in article PMC10525445, “Antitrypanosomal Activity of 1,2,3-Triazole-Based Hybrids Evaluated Using In Vitro Preclinical Translational Models” (Biology, 2023).
“Also recorded” adds a separate entry of the source. Where two headings read alike, the source gives them in different places.

How the values were obtained:
Format in all cases: cell-based, Trypanosoma cruzi
[1] = tested on: intracellular amastigote of T. cruzi Dm28c-Luc; test: Drug combination assay with Bz (isobologram); details: for xΣFICI (average of the sums of fractional inhibitory concentration index): combination with Bz, six ratios, additive xΣFICI > 0.5–1; for interaction with Bz: isobologram, intracellular amastigote
Protocol: The combination of promising candidates and Bz was performed using an isobologram method. Initial concentrations were determined by ensuring that IC50 concentrations of monotherapy compounds remained close to half in serial dilutions (1:3–6 concentrations). Solutions at the initial concentration of each compound were prepared and then mixed in proportions of 5:0, 4:1, 3:2, 2:3, 1:4, and 0:5 (v/v) of promising compounds and Bz, respectively. The anti-T. cruzi activity for the serial dilutions (1:3) of the ratios was then analyzed, as previously described. The IC50 values for each combination were used to determine the fractional inhibitory concentration index (FICI); thus, FICI(A) = IC50(A) in combination/IC50(A) alone and FICI(B) = IC50(B) in combination/IC50(B) alone. In addition, the sum of the FICIs for each proportion (∑FICI = FICI(A) + FICI(B)) and the average of the sums for the FICIs (xΣFICI) were calculated. The FICI values were plotted on an isobologram graph. The xΣFICI was applied as a classification criterion for interactions: as synergistic xΣFICI ≤ 0.5, additive xΣFICI > 0.5–1, without interaction xΣFICI > 1–4, and antagonistic for xΣFICI > 4.

[2] = molecular target: trypomastigote forms of T. cruzi (Dm28c-Luc); test: Trypanocidal activity against trypomastigotes (luciferase luminescence, 24 h); details: for Trypomastigotes SI: SI = CC50 of VERO cells/IC50 of trypomastigotes; for increase of activity compared with 1g (times): trypomastigotes
Protocol: (§1) A drug screen was carried out with Trypanosoma cruzi clone Dm28c genetically modified to express luciferase (Dm28c-luc), kindly provided by Dr. Cristina Henriques. The genetically modified T. cruzi clone Dm28c (Dm28c-Luc) has the firefly luciferase gene integrated into the genome, stably expressing the luminescent enzyme. The bioluminescent signal, proportional to the number of parasites, is produced by adding a D-luciferin substrate. Trypomastigotes were harvested from supernatants of VERO cell cultures, infected at a ratio of 10:1 parasite/host cells, 4 days post-infection (4 dpi). Parasites were used for phenotypic drug screening procedures. Luminescent parasites are a reliable and sensitive tool that allows precise quantification of parasite load. The use of genetically modified organisms was approved under license CQB 105/99.
All triazole analogs were analyzed for their biological activity against trypomastigote and intracellular amastigote forms of T. cruzi (Dm28c-Luc). Trypomastigotes (1.0 × 10^6 parasites/well) were incubated for 24 h at 37 °C with triazole derivatives and Bz at concentrations ranging from 0.04 to 100 µM. Luciferin (300 µg/mL), a luciferase substrate, was added to parasite suspensions to evaluate trypomastigotes viability. The luminescent signal was measured using a Glomax microplate reader. A maximal DMSO concentration (0.1%) was used as the negative control. The inhibitory concentration 50 (IC50) and 90 (IC90) against T. cruzi, which reduces the number of parasites by 50% and 90%, respectively, was calculated using linear regression. The selectivity index (SI), a ratio that measures the window between toxicity in mammalian cells and anti-T. cruzi activity (SI = CC50/IC50), was also determined.

[3] = tested on: T. cruzi (Dm28c-Luc)-infected VERO cells; test: Short-term washout assay (3 days treatment, 3 days without compound)
Protocol: A washout assay was performed to evaluate the capacity of the promising candidates to eliminate all parasites. Thus, VERO cells, seeded in 96-well plates at a density of 1.5 × 10^4 cells/well, were infected with T. cruzi (Dm28c-Luc) at a 10:1 parasite–host cell ratio (24 h). Two treatment schedules were performed: 3 days with 30, 50, and 100 µM concentrations and 10 days with 30 and 60 times the IC50 concentrations. After treatment, the cultures were washed with PBS and kept for the same period in RPMI 1640 medium supplemented with 10% FBS without compound pressure. The culture medium was changed every 3 or 4 days during the time course, and the supernatant was harvested for luminescence reading after luciferin (300 µg/mL) addition. At the endpoint, the monolayers were also evaluated for parasite load. The luminescent signal was read using a Glomax reader. Bz (100 µM) and DMSO (≤1%) were used as positive and negative controls, respectively.

[4] = tested on: intracellular amastigote forms of T. cruzi (Dm28c-Luc); test: Activity against intracellular amastigotes in infected VERO cells (72 h); details: for Intracellular Amastigotes SI: SI = CC50 of VERO cells/IC50 of intracellular amastigotes; for IC50 / IC90: infected VERO cells, 72 h, mean ± SD; for IC50: read-out: Trypanocidal Activity Intracellular Amastigotes IC50; for IC90: read-out: Trypanocidal Activity Intracellular Amastigotes IC90
Protocol: as §1
Activity against intracellular amastigotes was determined in cultures of VERO cells infected by T. cruzi (24 h), as previously described. Briefly, infected cultures were treated for 72 h at 37 °C with different concentrations of triazole derivatives (0.04–100 µM). Then, the culture supernatant was removed, and the viability of the intracellular parasites was evaluated after adding luciferin (300 µg/mL) to the cell monolayer followed by reading using the microplate reader. Anti-T. cruzi activity (IC50 and IC90) and SI values were determined. All experimental assays were performed at least 3 times in duplicate.

[5] = tested on: T. cruzi Dm28c-Luc in 3D cardiac spheroids; test: Drug efficacy in T. cruzi-infected 3D cardiac spheroids; details: 72 h, 15 to 30 times the IC50, 1f maximum 50 µM
Protocol: Primary heart muscle cell cultures were obtained from fetuses of female Swiss Webster mice, as previously described. After heart removal and ventricle fragmentation, tissue fragments were dissociated in a trypsin and collagenase type II (Worthington Biochemical Corporation, Lakewood, USA) dissociation solution. For two-dimensional (2D) cultures, the isolated cardiac cells were seeded at a density of 5 × 10^4 cells/well in gelatin (0.1%)-coated 96-well white culture plates. Three-dimensional (3D) cardiac spheroids were obtained after seeding isolated heart muscle cells at a density of 2.5 × 10^4 cells/well in an agarose (1%)-coated 96-well U-bottom plate, as described in [35]. Heart muscle cells cultures were cultivated in Dulbecco’s modified Eagle medium (DMEM) supplemented with 7% FBS, 2.5 mM CaCl2, 2% embryo extract, and 1 mM L-glutamin and maintained at 37 °C in a humidified atmosphere of 5% CO2. All procedures with animals were approved by the Animal Care and Use Committee at the Oswaldo Cruz Institute (license L-017/2022).
A three-dimensional cardiac model was applied as a cell culture platform to test the efficacy of promising candidates. […] Microtissues were also incubated with DMSO (0.1%) and Bz (100 µM) as negative and positive controls, respectively. After luciferin addition (300 µg/mL), the luminescence was measured, and the data were expressed as arbitrary luminescence units (ALU).

[6] = Trypanosoma cruzi, Dm28c-Luc, 24 h, mean ± SD
[7] = Trypanosoma cruzi, Dm28c-Luc, 24 h, mean ± SD, read-out: Trypanocidal Activity Trypomastigotes IC50
[8] = Trypanosoma cruzi, Dm28c-Luc, 24 h, read-out: pIC50 against trypomastigotes (converted)

Compound	xΣFICI (average of the sums of fractional inhibitory concentration index) [1]	interaction with Bz [1]	Trypomastigotes SI [2]	increase of activity compared with 1g (times) [2]	Intracellular Amastigotes SI [4]	parasite load in 3D cardiac microtissue (luminescence) [5]	IC90 [2, 6]	IC50 [2, 7]	IC50 [2, 8]	IC50 ([4]; Trypanosoma cruzi)	IC90 ([4]; Trypanosoma cruzi)	other results
4-Phenyl-1-(m-tolyl)-1H-1,2,3-triazole [Triazole 1f]	0.88	additive effect	70.5	1.8 times	24.8	significantly inhibited the viability of the parasites; also recorded: significantly reduce the parasite load	–	–	–	–	–	pIC50 against trypomastigotes ([2]; Dm28c-Luc, 24 h): 5.91; IC90 ([2]; Dm28c-Luc, 24 h, mean ± SD): 3.68 ± 0.6 µM; IC50 ([2]; Dm28c-Luc, 24 h, mean ± SD, read-out: Trypanocidal Activity Trypomastigotes IC50): 1230 ± 240 nM; effect on parasite load ([3]; 30 µM): did not significantly reduce the parasite load; fold reduction in parasite load compared to untreated cultures ([3]; 50 µM): ~12 fold; parasite resurgence ([3]; 50 µM): did not prevent parasite resurgence; IC50 [4]: 3.5 ± 0.39 µM; IC90 [4]: 30.4 ± 0.4 µM
COc1ccc(-n2cc(-c3ccccc3)nn2)cc1 [Triazole 1d, 1-(4-Methoxyphenyl)-4-phenyl-1H-1,2,3-triazole]	0.93	additive effect	>2380	11 times	>152	significantly inhibited the viability of the parasites; also recorded: significantly reduce the parasite load	2.9 ± 0.16 µM	210 ± 30 nM	214 nM	3.27 ± 0.9 µM	> 100 µM	fold reduction in parasite load compared to untreated cultures ([3]; 100 µM): approximately 10 fold; parasite resurgence ([3]; 100 µM): did not prevent parasite resurgence
c1ccc(-c2cn(-c3ccccc3)nn2)cc1 [Triazole 1g, 1-(4-Diphenyl)-1H-1,2,3-triazole]	0.90	additive effect	>219	–	>80.6	did not effectively decrease the total number of viable intracellular parasites	> 100 µM	2280 ± 340 nM	2290 nM	6.2 ± 1.06 µM	> 100 µM	effect on parasite load / infection progression ([3]; 100 µM): did not significantly reduce the parasite load
